{"source": "patent US9566262B2", "about": "“Itch suppression by fucoxanthin” (THE RITSUMEIKAN TRUST, priority 2015, dated 2017)", "key": {"NC/Nga mice [1]": {"system": "NC/Nga mice", "test": "BrdU uptake in auricular lymph node cells of NC/Nga mice (ELISA)", "assay_type": "in vivo", "conditions": "topical application for 5 weeks, BrdU i.p. on day 34, vs Vaseline", "from_the_text": "On day 12, day 19, day 26 and day 33 after starting application of Vaseline or fucoxanthin, 0.8% picryl chloride (PiCl) was further applied to the back skin of the mice. The behaviors of the mice were observed by video monitoring. On day 34 after starting application of Vaseline or fucoxanthin, bromodeoxyuridine (BrdU, Nacalai Tesque) ([…]) was intraperitoneally administered to the mice. At 5 weeks after starting application of Vaseline or fucoxanthin, the time each mouse spent for scratching behavior in 10 minutes was measured by video monitoring. Then, the mice were sacrificed and the auricular lymph node, blood and skin were obtained. Serum IgE content was determined by enzyme-linked immunosorbent assay (ELISA) using Mouse IgE Assay Kit (Morinaga Institute of Biological Science, Inc.). The auricular lymph node was digested with 0.1% trypsin/0.1% collagenase, the obtained dissociated cells were suspended by pipetting, and the enzyme reaction was stopped by adding Dulbecco's modified Eagle medium (DMEM) containing 10% fetal bovine serum (Wako Pure Chemical Industries, Ltd.). BrdU uptake was determined by ELISA using Cell Proliferation ELISA, BrdU (Colorimetric) (Roche Diagnostics K.K.)."}, "[2]": {"system": "bone marrow-derived mast cells (BMMCs)", "test": "Degranulation of BMMCs, β-hexosaminidase release after anti-DNP-IgE / DNP-HSA stimulation", "assay_type": "cell-based, mice", "conditions": "pre-treated with 0.1 μM, 1 μM or 10 μM before DNP-HSA stimulation, vs DMSO", "description": "The degranulation of BMMCs was evaluated by measuring β-hexosaminidase activity in the culture solution of the mature mast cells. Bone marrow cells obtained from 8-week-old female mice were cultured in a medium for conditioning containing interleukin-3 (IL-3) for 4 weeks to give mature mast cells. The mature mast cells thus prepared were cultured in 24-well plate (5×10^3 cells/well) overnight, and sensitized with 50 ng/mL anti-DNP-IgE (Sigma Chemicals) at 37° C. for 2 hours. The cells were rinsed by MT buffer (137 mmol/L NaCl, 2.7 mmol/L KCl, 1.8 mmol/L CaCl2, 1 mmol/L MgCl2.6H2O, 5.6 mmol/L glucose, 20 mmol/L HEPES, 0.1% BSA, pH7.3), and pre-treated with 0.1 μM, 1 μM or 10 μM fucoxanthin, or dimethyl sulfoxide (DMSO) for 10 minutes. Then, the cells were treated with 2.5 μg/mL DNP-labeled human serum albumin (Sigma Chemicals) at 37° C. for 30 minutes. After incubation, the supernatant was transferred to a 96-well plate and incubated with 3.3 mM p-nitrophenyl-2-acetamide-2-deoxy-β-glucopyranoside at 37° C. for 25 minutes. Absorbance at 405 nm was measured using microplate reader. The results are shown as percentage of total β-hexosaminidase."}, "GATA-luc": {"system": "GATA-luc", "test": "Luciferase reporter assay in HEK293 cells", "assay_type": "cell-based", "conditions": "HEK293, treated 3 hours after transfection for 48 hours, vs DMSO (fucoxanthin 0.1, 1, 10 μM)", "from_the_text": "The plasmids pGL3-Cebpα promoter-luc and pGL3-Mitf1 promoter-luc were provided by Dr. Hua Huang (University of Colorado school, Denver, USA). The plasmid NF-κB-luc was purchased from Agilent Technologies (Santa Clara, Calif.). The GATA-responsive reporter vector was provided by Dr. Ishijima (Takasaki University of Health and welfare, Gunma, Japan). Three GATA motifs from mouse α-1 globulin gene (5′-TGATAA-3′) were tandemly inserted into Sma I site of pRBGP3. HDC promoter was provided by Dr. Ootsu (Tohoku University school of Medicine, Sendai, Japan) and cloned into Kpn I-Hind III site of pGL4.10 (Hdc promoter-luc). The reporter assay was performed according to the method described in Kanatani, N. et al. Briefly, HEK293 cells were transfected with each of the luciferase constructs (0.2 μg) or pRL-CMV (Promega, Madison, Wis.) (0.001 μg). At 3 hours after transfection, the cells were treated with fucoxanthin (0.1 μM, 1 μM or 10 μM) or DMSO for 48 hours and reporter assay was performed using Dual-Luciferase® Reporter Assay System (Promega). Luciferase activity was measured using luminometer model TD20/20n (Turner BioSystems, Sunnyvale, Calif.) and normalized to Renilla luciferase activity expressed by CMV promoter.\nGATA-reporter assay was performed using HEK293 cells expressing GATA-luc prepared in Example 8, in the same manner as described in Example 8 except using various carotenoids (fucoxanthin, astaxanthin, lycopene, β-carotene or retinoic acid) in place of fucoxanthin."}, "[3]": {"system": "bone marrow-derived mast cells (BMMCs)", "test": "Granule formation in BMMCs, tryptase immunostaining", "assay_type": "cell-based, mice", "conditions": "10 μM, vs control-treated cells", "description": "Mature mast cells were prepared in the same manner as described in Example 5. The BMMCs obtained were mounted on a glass slide and heat-fixed. The analysis of the preparation was performed according to the method described in Kosaka, T., Fukui, R., Matsui, M. et al. (2014) “RAGE, Receptor of Advanced Glycation Endoproducts, Negatively Regulates Chondrocytes Differentiation.” PLoS ONE 9(10): e108819. Briefly, the cells were reacted with a mouse anti-mast cell tryptase antibody (AB2378, Abcam, Tokyo, Japan) and then reacted with an FITC-conjugated anti-mouse IgG (Santa Cruz Biotechnology, Inc.) and 1 μg/mL DAPI (4′,6-diamino-2-phenylindole dihydrochloride). The fluorescent image was analyzed by EVOS® FL Cell Imaging System (Life Technologies Corp).\nTo confirm where the effect of fucoxanthin on granule formation in mast cells is specific rather than common to carotenoids, we compared granule formation between fucoxanthin-treated and astaxanthin-treated BMMCs by immunostaining of tryptase. The immunostaining assay was performed in the same manner as described in Example 6."}, "NC/Nga mice [4]": {"system": "NC/Nga mice", "test": "Swelling (length) of the auricular lymph node in NC/Nga mice", "assay_type": "in vivo", "conditions": "topical application for 5 weeks, PiCl-sensitized, vs Vaseline", "from_the_text": "NC/Nga mice (5 weeks old, female) were purchased from Japan SLC, Inc. […] On day 12, day 19, day 26 and day 33 after starting application of Vaseline or fucoxanthin, 0.8% picryl chloride (PiCl) was further applied to the back skin of the mice. The behaviors of the mice were observed by video monitoring. On day 34 after starting application of Vaseline or fucoxanthin, bromodeoxyuridine (BrdU, Nacalai Tesque) (0.[…] weight) was intraperitoneally administered to the mice. At 5 weeks after starting application of Vaseline or fucoxanthin, the time each mouse spent for scratching behavior in 10 minutes was measured by video monitoring. Then, the mice were sacrificed and the auricular lymph node, blood and skin were obtained. Serum IgE content was determined by enzyme-linked immunosorbent assay (ELISA) using Mouse IgE Assay Kit (Morinaga Institute of Biological Science, Inc.). […] BrdU uptake was determined by ELISA using Cell Proliferation ELISA, BrdU (Colorimetric) (Roche Diagnostics K.K.). […] Also, serum IgE levels and swelling of the auricular lymph nodes of the mice were determined in the same manner as described in Example 2."}}, "note": "Entries after “also recorded” stand apart in the source; their conditions may differ.", "data": [{"smiles": "CC(=O)O[C@H]1CC(C)(C)C(=C=C/C(C)=C/C=C/C(C)=C/C=C/C=C(C)/C=C/C=C(\\C)C(=O)C[C@@]23O[C@]2(C)C[C@@H](O)CC3(C)C)[C@](C)(O)C1", "note": "[fucoxanthin]", "values": [{"measurement": "BrdU uptake (cell proliferation in the auricular lymph node)", "setting": "NC/Nga mice [1]", "result": "not affected"}, {"measurement": "release of β-hexosaminidase (degranulation)", "setting": "[2]", "result": "suppressed release of β-hexosaminidase in a dose-dependent manner"}, {"measurement": "GATA-luc expression", "setting": "GATA-luc", "result": "downregulated"}, {"measurement": "granule formation (tryptase-positive cells / immunoreactivity against tryptase)", "setting": "[3]", "result": "remarkably reduced; also recorded: No tryptase-positive cell; also recorded: suppressed granule formation; also recorded: almost completely inhibited granule formation"}, {"measurement": "swelling of the auricular lymph node (ear swelling)", "setting": "NC/Nga mice [4]", "result": "neither ear swelling (FIG. 9A) nor serum IgE level (FIG. 9B) were affected; also recorded: failed to attenuate lymph inflammation; also recorded: not affected"}]}]}
